From patent publication US8822449B2, “Substituted aminoindanes and analogs thereof, and the pharmaceutical use thereof” (Sanofi, priority 2008, dated 2014) come the findings set out here.

Like-named read-outs stand apart in the source and are kept apart here.

This assay addresses T1, sodium-proton exchanger of subtype 3 (NHE3) (Homo sapiens, UniProt P48764).
T1 construct: expressed in transfected cells
T1 sequence (P48764 26-834): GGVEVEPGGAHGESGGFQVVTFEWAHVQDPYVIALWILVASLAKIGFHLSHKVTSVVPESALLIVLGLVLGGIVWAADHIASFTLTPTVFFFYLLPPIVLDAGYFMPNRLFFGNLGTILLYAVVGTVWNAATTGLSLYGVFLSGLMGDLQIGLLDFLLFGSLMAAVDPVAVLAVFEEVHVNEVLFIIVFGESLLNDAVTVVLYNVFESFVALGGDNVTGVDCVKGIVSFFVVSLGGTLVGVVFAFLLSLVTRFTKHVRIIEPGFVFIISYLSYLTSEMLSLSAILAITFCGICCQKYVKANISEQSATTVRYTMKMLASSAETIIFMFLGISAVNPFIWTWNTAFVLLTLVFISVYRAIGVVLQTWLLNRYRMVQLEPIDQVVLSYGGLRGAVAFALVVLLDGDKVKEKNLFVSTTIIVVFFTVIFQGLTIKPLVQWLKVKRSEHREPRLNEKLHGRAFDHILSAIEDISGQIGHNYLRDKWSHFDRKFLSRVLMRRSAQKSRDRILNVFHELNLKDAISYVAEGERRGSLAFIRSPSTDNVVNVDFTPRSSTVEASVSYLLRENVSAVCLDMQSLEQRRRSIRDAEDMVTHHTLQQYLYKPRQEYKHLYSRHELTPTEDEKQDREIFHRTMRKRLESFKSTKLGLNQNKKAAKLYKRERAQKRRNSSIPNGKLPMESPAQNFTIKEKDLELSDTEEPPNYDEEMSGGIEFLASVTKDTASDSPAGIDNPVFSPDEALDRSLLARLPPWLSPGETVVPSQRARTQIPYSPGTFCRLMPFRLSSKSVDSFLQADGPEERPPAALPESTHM
Description: Recovery of intracellular pH (pHi) after acidification in LAP1 cells stably expressing NHE3 (BCECF fluorescence, FLIPR). The assay is classed as cell-based. Particulars: LAP1 cells stably expressing NHE3, pH recovery after acidification, range 1 is % inhibition at 10 μM.

Setting [1] is: read-out: Activity range (inhibitory effect on NHE3).

On to `COc1cc(C#N)cc(Cl)c1O[C@H]1c2ccccc2CC[C@@H]1N1CCC[C@@H](N)C1` (racemic) [Example 512, 4-[rac-trans-(1,2)-2-((R)-3-aminopiperidin-1-yl)-1,2,3,4-tetrahydronaphthalen-1-yloxy]-3-chloro-5-methoxy-benzonitrile], for which the inhibition at 10 µM under setting [1] fell in the range of 20 to 50%.

In the case of `NS(=O)(=O)c1ccc(OC2c3ccccc3CC2N2CC[C@@H](O)C2)cc1` (mixture of isomers) [Example 527, 4-[rac-trans-(1,2)-2-((R)-3-Hydroxypyrrolidin-1-yl)indan-1-yloxy]benzenesulfonamide], under setting [1], the IC50 was 1000 to 10000 nM.

On to `O=C1OCc2cc(O[C@H]3c4ccccc4C[C@@H]3N3CCCC3)ccc21` (racemic) [Example 571, 5-(rac-trans-(1,2)-2-pyrrolidin-1-ylindan-1-yloxy)-3H-isobenzofuran-1-one], for which the IC50 under setting [1] was 1000 to 10000 nM.

With `CS(=O)(=O)c1ccc(O[C@@H]2c3cc(Cl)cc(F)c3C[C@H]2N2CCC[C@@H](N)C2)cc1` (racemic) [Example 93, (R)-1-[rac-trans-(1,2)-6-chloro-4-fluoro-1-(4-methanesulfonylphenoxy)indan-2-yl]piperidin-3-ylamine], under setting [1], the IC50 was less than 1000 nM.

In the case of `CCn1c(C)nn(-c2ccc(O[C@H]3c4cc(Cl)cc(Cl)c4C[C@@H]3N3CC[C@@H](O)C3)cc2)c1=O` [Example 737, 2-{4-[trans-(1S,2S)-4,6-Dichloro-2-((R)-3-hydroxy-pyrrolidin-1-yl)-indan-1-yloxy]-phenyl}-4-ethyl-5-methyl-2,4-dihydro-[1,2,4]triazol-3-one], the IC50 under setting [1] lay within 1000 to 10000 nM.

Turning to `CC(=O)Nc1cccc(O[C@H]2c3ccc(F)cc3C[C@@H]2N2CCCC2)c1` (racemic) [Example 656, N-[3-(rac-trans-(1,2)-5-fluoro-2-pyrrolidin-1-ylindan-1-yloxy)phenyl]acetamide], under setting [1], the IC50 lay in the range of 1000 to 10000 nM.

With `N[C@H]1CCCN([C@@H]2Cc3ccccc3[C@H]2Oc2ccc(-n3ccnc3)cc2)C1` (racemic) [Example 181, (S)-1-[rac-trans-(1,2)-1-(4-imidazol-1-ylphenoxy)indan-2-yl]piperidin-3-ylamine], the IC50 under setting [1] is 1000 to 10000 nM.

Consider `CCN(CC)[C@@H]1Cc2ccccc2[C@H]1Oc1ccc(N2CCNCC2)cc1` (racemic) [Example 627, Diethyl-[rac-trans-(1,2)-1-(4-piperazin-1-ylphenoxy)indan-2-yl]amine], for which the IC50 (Activity range (inhibitory effect on NHE3)) fell in the range of 1000 to 10000 nM.

As for `NC1CCN([C@@H]2Cc3ccccc3[C@H]2Oc2ccc(NC(=O)OCc3ccccc3)cc2)C1` (mixture of isomers) [Example 241, {4-[rac-trans-(1,2)-2-(3-aminopyrrolidin-1-yl)indan-1-yloxy]phenyl}carbamic acid benzyl ester], the IC50 under setting [1] is 1000 to 10000 nM.

As for `CS(=O)(=O)c1ccc(O[C@H]2c3ccccc3C[C@@H]2N2CCCC2)cc1Cl` (racemic) [Example 268, 1-[rac-trans-(1,2)-1-(3-chloro-4-methanesulfonylphenoxy)indan-2-yl]pyrrolidine], the inhibition at 10 µM under setting [1] is 20 to 50%.

`CS(=O)(=O)c1ccc(O[C@H]2c3ccccc3C[C@@H]2N2CCNCC2)cc1` (racemic) [Example 272, 1-[rac-trans-(1,2)-1-(4-methanesulfonylphenoxy)indan-2-yl]piperazine]: the IC50 under setting [1] is 1000 to 10000 nM.

Regarding `CS(=O)(=O)c1ccc(O[C@H]2c3ccccc3C[C@@H]2NC2CCCC2)cc1` (racemic) [Example 623, Cyclopentyl-[1-(4-methanesulfonylphenoxy)indan-2-yl]amine], the IC50 under setting [1] lay within 1000 to 10000 nM.

Regarding `CN1CCN(c2cccc(O[C@H]3c4cc(Cl)cc(Cl)c4C[C@@H]3N3CC[C@@H](O)C3)c2)C1=O` [Example 319, 1-{3-[trans-(1S,2S)-4,6-dichloro-2-((R)-3-hydroxypyrrolidin-1-yl)indan-1-yloxy]phenyl}-3-methylimidazolidin-2-one], the IC50 under setting [1] lay within 1000 to 10000 nM.

Consider `CC(=O)Nc1cccc(O[C@H]2c3cc(Cl)cc(Cl)c3C[C@@H]2N2CCN(C)CC2)c1` [Example 697, N-{3-[trans-(1S,2S)-4,6-dichloro-2-(4-methylpiperazin-1-yl)indan-1-yloxy]phenyl}acetamide], for which, under setting [1], the IC50 fell in the range of 1000 to 10000 nM.

Consider `CS(=O)(=O)c1ccc(O[C@H]2c3cc(Cl)cc(F)c3C[C@@H]2NC2CCCC2)cc1` [Example 751, [trans-(1S,2S)-6-Chloro-4-fluoro-1-(4-methanesulfonyl-phenoxy)-indan-2-yl]-cyclopentyl-amine], for which, under setting [1], the IC50 fell in the range of 1000 to 10000 nM.

Take `Cc1nnc(C(C)C)n1-c1ccc(O[C@H]2c3cc(Cl)cc(F)c3C[C@@H]2N2CC[C@@H](O)C2)cc1` [Example 721, (R)-1-{trans-(1S,2S)-6-Chloro-4-fluoro-1-[4-(3-isopropyl-5-methyl-[1,2,4]triazol-4-yl)-phenoxy]-indan-2-yl}-pyrrolidin-3-ol]: the IC50 under setting [1] fell in the range of 1000 to 10000 nM.

Regarding `N#Cc1ccc(O[C@@H]2c3ccccc3C[C@H]2N2C[C@H]3CNC[C@H]3C2)cc1Cl` (racemic) [Example 393, 2-chloro-4-[rac-trans-(1,2)-2-(hexahydropyrrolo[3,4-c]pyrrol-2-yl)indan-1-yloxy]benzonitrile], the IC50 under setting [1] is 1000 to 10000 nM.

With `O=C1COC(=O)N1c1ccc(O[C@H]2c3cc(Cl)cc(Cl)c3C[C@@H]2N2CC[C@@H](O)C2)c(Cl)c1` [Example 424, 3-{3-chloro-4-[(1S,2S)-4,6-dichloro-2-((R)-3-hydroxypyrrolidin-1-yl)indan-1-yloxy]phenyl}oxazolidine-2,4-dione], under setting [1], the IC50 is less than 1000 nM.

In the case of `CS(=O)(=O)c1ccc(O[C@H]2c3cc(Cl)cc(Cl)c3C[C@@H]2N2CC[C@H](N)C2)cc1` [Example 199, (S)-1-[trans-(1S,2S)-4,6-dichloro-1-(4-methanesulfonylphenoxy)indan-2-yl]pyrrolidin-3-ylamine], the IC50 under setting [1] is less than 1000 nM.

Consider `Cc1c(O[C@H]2c3cc(Cl)cc(Cl)c3C[C@@H]2N2CC[C@@H](O)C2)ccc(-n2c(C)nnc2C)c1C` [Example 127, (R)-1-{trans-(1S,2S)-4,6-dichloro-1-[4-(3,5-dimethyl-[1,2,4]triazol-4-yl)-2,3-dimethylphenoxy]indan-2-yl}pyrrolidin-3-ol], for which, under setting [1], the IC50 was less than 1000 nM.

In the case of `N[C@@H]1CCCN([C@H]2Cc3c(Cl)cc(Cl)cc3[C@@H]2Oc2ccc(S(N)(=O)=O)c(Cl)c2Cl)C1` [Example 550, 4-[trans-(1S,2S)-2-((R)-3-aminopiperidin-1-yl)-4,6-dichloroindan-1-yloxy]-2,3-dichlorobenzenesulfonamide], the IC50 under setting [1] was less than 1000 nM.

In the case of `N[C@@H]1CCCN([C@@H]2Cc3ccccc3[C@H]2Oc2ccc(Br)cc2-c2cc[nH]n2)C1` (racemic) [Example 118, (R)-1-{rac-trans-(1,2)-1-[4-bromo-2-(1H-pyrazol-3-yl)phenoxy]indan-2-yl}piperidin-3-ylamine], the IC50 under setting [1] was 1000 to 10000 nM.

In the case of `NCC1CCN([C@@H]2Cc3ccccc3[C@H]2Oc2ccc3c(c2)OCO3)CC1` (racemic) [Example 620, C-{1-[rac-trans-(1,2)-1-(benzo[1,3]dioxol-5-yloxy)indan-2-yl]piperidin-4-yl}methylamine], the IC50 under setting [1] fell in the range of 1000 to 10000 nM.

`CCN(CC)[C@@H]1Cc2ccccc2[C@H]1Oc1ccc2c(c1)C(C)C(=O)N2C` (mixture of isomers) [Example 568, 5-(rac-trans-(1,2)-2-diethylaminoindan-1-yloxy)-1,3-dimethyl-1,3-dihydroindol-2-one]: the IC50 under setting [1] was in the range of 1000 to 10000 nM.

For `N[C@H]1CCCN([C@H]2CCc3ccccc3[C@@H]2Oc2ccc(Cl)nc2)C1` (racemic) [Example 190, (S)-1-[rac-trans-(1,2)-1-(6-chloropyridin-3-yloxy)-1,2,3,4-tetrahydronaphthalen-2-yl]piperidin-3-ylamine], the inhibition at 10 µM under setting [1] lay in the range of 20 to 50%.

Turning to `CCOC(=O)c1ncoc1-c1ccc(O[C@H]2c3ccccc3CC[C@@H]2N2CCC[C@H](N)C2)cc1` (racemic) [Example 584, 5-{4-[rac-trans-(1,2)-2-((S)-3-aminopiperidin-1-yl)-1,2,3,4-tetrahydronaphthalen-1-yloxy]phenyl}oxazole-4-carboxylic acid ethyl ester], the IC50 under setting [1] fell in the range of 1000 to 10000 nM.

With `O=C1OCCN1c1ccc(O[C@H]2c3cc(Cl)cc(Cl)c3C[C@@H]2N2CC[C@@H](O)C2)cc1` [Example 429, 3-{4-[trans-(1S,2S)-4,6-dichloro-2-((R)-3-hydroxypyrrolidin-1-yl)indan-1-yloxy]phenyl}oxazolidin-2-one], the IC50 under setting [1] was 1000 to 10000 nM.

As to `NS(=O)(=O)c1ccc(O[C@H]2c3ccccc3C[C@@H]2N2CCCC2)c(F)c1` (racemic) [Example 451, 3-fluoro-4-(2-pyrrolidin-1-ylindan-1-yloxy)benzenesulfonamide], the IC50 under setting [1] was less than 1000 nM.

On to `NC1CCN([C@@H]2Cc3ccccc3[C@H]2Oc2ccc3cc[nH]c3c2)C1` (mixture of isomers) [Example 262, 1-[rac-trans-(1,2)-1-(1H-indol-6-yloxy)indan-2-yl]pyrrolidin-3-ylamine], for which, under setting [1], the IC50 was 1000 to 10000 nM.
